Measurements published in article PMC6253998, “Ring-substituted 4-Hydroxy-1H-quinolin-2-ones: Preparation and Biological Activity” (Molecules, 2009).
Converted amounts (≈) assume the structure as drawn. Like-named read-outs stand apart in the source and are kept apart here.

Assays:
[1] = system: spinach chloroplasts; assay: Inhibition of oxygen evolution rate (OER) / photosynthetic electron transport in spinach chloroplasts; type: biochemical, Spinacia oleracea L.; conditions: for IC50: DCPIP photoreduction, pH 7.2
Description: Chloroplasts were prepared from spinach (Spinacia oleracea L.) according to Masarovicova and Kralova. The inhibition of photosynthetic electron transport (PET) in spinach chloroplasts was determined spectrophotometrically (Genesys 6, Thermo Scientific, U.S.A.) using an artificial electron acceptor 2,6-dichlorophenol-indophenol (DCPIP) according to Kralova et al. and the rate of photosynthetic electron transport was monitored as a photoreduction of DCPIP. The measurements were carried out in phosphate buffer (0.02 mol/L, pH 7.2) containing sucrose (0.4 mol/L), MgCl2 (0.005 mol/L) and NaCl (0.015 mol/L). The chlorophyll content was 30 mg/L in these experiments and the samples were irradiated (~100 W/m^2) from 10 cm distance with a halogen lamp (250 W) using a 4 cm water filter to prevent warming of the samples (suspension temperature 22 °C). The studied compounds were dissolved in DMSO due to their limited water solubility. […] The inhibitory efficiency of the studied compounds was expressed by IC50 values, i.e. by molar concentration of the compounds causing 50% decrease in the oxygen evolution rate relative to the untreated control.

[2] = system: Candida krusei ATCC 6258; assay: In vitro antifungal broth microdilution test; type: cell-based; conditions: Pichia kudriavzevii
Description: (§1) Fluconazole (FLU) was used as the standard of a clinically used antimycotic drug. The procedure was performed with twofold dilution of the compounds in […]., Prague, Czech Republic) buffered to pH 7.0 with 0.165 mol of 3-morpholino-propane-1-sulfonic acid (MOPS, Sigma, Germany). […] Drug-free controls were included. The MIC was defined as an 80% or greater (IC80) reduction of growth in comparison with the control.

[3] = system: Absidia corymbifera 272; assay: In vitro antifungal broth microdilution test; type: cell-based
Description: as §1

[4] = system: Candida glabrata 20/I; assay: In vitro antifungal broth microdilution test; type: cell-based; conditions: Nakaseomyces glabratus, 20/I
Description: as §1

[5] = system: Trichophyton mentagrophytes 445; assay: In vitro antifungal broth microdilution test; type: cell-based
Description: as §1

[6] = system: Candida albicans ATCC 44859; assay: In vitro antifungal broth microdilution test; type: cell-based; conditions: Candida albicans
Description: as §1

[7] = system: Aspergillus fumigatus 231; assay: In vitro antifungal broth microdilution test; type: cell-based
Description: as §1

[8] = system: Candida tropicalis 156; assay: In vitro antifungal broth microdilution test; type: cell-based
Description: as §1

[9] = Lipophilicity HPLC determination (capacity factor k / log k); type: physicochemical; conditions: RP-HPLC, C18 column, MeOH 55.0% / H2O 45.0%, isocratic
Description: Hydrophobicities (log P/Clog P values) of the compounds 1-12 were calculated using two commercially available programs and also measured by means of the reversed phase high performance liquid chromatography (RP-HPLC) method for lipophilicity measurement. The procedure was performed under isocratic conditions with methanol as an organic modifier in the mobile phase using an end-capped non-polar C18 stationary RP column. The capacity factors k were determined and subsequent log k values were calculated.
The HPLC separation module Waters Alliance 2695 XE and Waters Photodiode Array Detector 2996 (Waters Corp., Milford, MA, U.S.A.) were used. A Symmetry® C18 5 μm, 4.6 × 250 mm, Part No. WAT054275, (Waters Corp., Milford, MA, U.S.A.) chromatographic column was used. The HPLC separation process was monitored by Millennium32® Chromatography Manager Software, Waters 2004 (Waters Corp., Milford, MA, U.S.A.). The mixture of MeOH p.a. (55.0%) and H2O-HPLC – Mili-Q Grade (45.0%) was used as a mobile phase. The total flow of the column was 0.9 mL/min, injection 30 μL, column temperature 30 °C and sample temperature 10 °C. The detection wavelength 210 nm was chosen. The KI methanolic solution was used for the dead time (TD) determination. Retention times (tR) were measured in minutes. The capacity factors k were calculated using the Millennium32® Chromatography Manager Software according to formula k = (tR - tD) / tD, where tR is the retention time of the solute, whereas tD denotes the dead time obtained via an unretained analyte. Log k, calculated from the capacity factor k, is used as the lipophilicity index converted to log P scale.

[10] = system: Trichosporon beigelii 1188; assay: In vitro antifungal broth microdilution test; type: cell-based; conditions: Trichosporon beigelii, 1188, RPMI 1640, pH 7.0, 35 °C, read-out: MIC/IC80 TB
Description: The broth microdilution test was used for the assessment of in vitro antifungal activity of the synthesized compounds against Candida albicans ATCC 44859 (CA), Candida tropicalis 156 (CT), Candida krusei ATCC 6258 (CK), Candida glabrata 20/I (CG), Trichosporon beigelii 1188 (TB), Aspergillus fumigatus 231 (AF), Absidia corymbifera 272 (AC), and Trichophyton mentagrophytes 445 (TM). Fluconazole (FLU) was used as the standard of a clinically used antimycotic drug. The procedure was performed with twofold dilution of the compounds in RPMI 1640 (Sevapharma a.s., Prague, Czech Republic) buffered to pH 7.0 with 0.165 mol of 3-morpholino-propane-1-sulfonic acid (MOPS, Sigma, Germany). The final concentrations of the compounds ranged from 500 to 0.975 μmol/l. Drug–free controls were included. The MIC was defined as an 80% or greater (IC80) reduction of growth in comparison with the control. The values of MICs were determined after 24 and 48 h of static incubation at 35 °C. For T. mentagrophytes, the final MICs were determined after 72 and 120 h of incubation.

[11] = ATCC6258, 24h, RPMI 1640, pH 7.0, 35 °C, read-out: MIC/IC80 CK
[12] = ATCC6258, 48h, RPMI 1640, pH 7.0, 35 °C, read-out: MIC/IC80 CK
[13] = Lichtheimia corymbifera, 272, 24h, RPMI 1640, pH 7.0, 35 °C, read-out: MIC/IC80 AC
[14] = Lichtheimia corymbifera, 272, 48h, RPMI 1640, pH 7.0, 35 °C, read-out: MIC/IC80 AC
[15] = 24h, RPMI 1640, pH 7.0, 35 °C, read-out: MIC/IC80 CG
[16] = 48h, RPMI 1640, pH 7.0, 35 °C, read-out: MIC/IC80 CG
[17] = Trichophyton mentagrophytes, 445, 72h, RPMI 1640, pH 7.0, 35 °C, read-out: MIC/IC80 TM
[18] = Trichophyton mentagrophytes, 445, 120h, RPMI 1640, pH 7.0, 35 °C, read-out: MIC/IC80 TM
[19] = ATCC44859, 24h, RPMI 1640, pH 7.0, 35 °C, read-out: MIC/IC80 CA
[20] = ATCC44859, 48h, RPMI 1640, pH 7.0, 35 °C, read-out: MIC/IC80 CA
[21] = Aspergillus fumigatus, 231, 24h, RPMI 1640, pH 7.0, 35 °C, read-out: MIC/IC80 AF
[22] = Aspergillus fumigatus, 231, 48h, RPMI 1640, pH 7.0, 35 °C, read-out: MIC/IC80 AF
[23] = Candida tropicalis, 156, 24h, RPMI 1640, pH 7.0, 35 °C, read-out: MIC/IC80 CT
[24] = Candida tropicalis, 156, 48h, RPMI 1640, pH 7.0, 35 °C, read-out: MIC/IC80 CT

Compound	IC50 [1] [µM]	log k [9]	MIC ([10]; 24h) [µM]	MIC ([10]; 48h) [µM]	MIC [2, 11] [µM]	MIC [2, 12] [µM]	MIC [3, 13] [µM]	MIC [3, 14] [µM]	MIC [4, 15] [µM]	MIC [4, 16] [µM]	MIC [5, 17] [µM]	MIC [5, 18] [µM]	MIC [6, 19] [µM]	MIC [6, 20] [µM]	MIC [7, 21] [µM]	MIC [7, 22] [µM]	MIC [8, 23] [µM]	MIC [8, 24] [µM]	other results
O=c1cc(O)c2ccccc2[nH]1 [Compound 1, 4-Hydroxyquinolin-2(1H)-one]	925	0.0664	> 500	> 500	–	–	–	–	–	–	–	–	–	–	–	–	–	–	MIC ([2]; ATCC6258, 24 h, pH 7, read-out: MIC/IC80 CK): > 500 µM; MIC ([2]; ATCC6258, 48 h, pH 7, read-out: MIC/IC80 CK): > 500 µM; MIC ([3]; Lichtheimia corymbifera, 272, 24 h, pH 7, read-out: MIC/IC80 AC): > 500 µM; MIC ([3]; Lichtheimia corymbifera, 272, 48 h, pH 7, read-out: MIC/IC80 AC): > 500 µM; MIC ([4]; 24 h, pH 7, read-out: MIC/IC80 CG): > 500 µM; MIC ([4]; 48 h, pH 7, read-out: MIC/IC80 CG): > 500 µM; MIC ([5]; Trichophyton mentagrophytes, 445, 72 h, pH 7, read-out: MIC/IC80 TM): > 500 µM; MIC ([5]; Trichophyton mentagrophytes, 445, 120 h, pH 7, read-out: MIC/IC80 TM): > 500 µM; MIC ([6]; ATCC44859, 24 h, pH 7, read-out: MIC/IC80 CA): > 500 µM; MIC ([6]; ATCC44859, 48 h, pH 7, read-out: MIC/IC80 CA): > 500 µM; MIC ([7]; Aspergillus fumigatus, 231, 24 h, pH 7, read-out: MIC/IC80 AF): > 500 µM; MIC ([7]; Aspergillus fumigatus, 231, 48 h, pH 7, read-out: MIC/IC80 AF): > 500 µM; MIC ([8]; Candida tropicalis, 156, 24 h, pH 7, read-out: MIC/IC80 CT): > 500 µM; MIC ([8]; Candida tropicalis, 156, 48 h, pH 7, read-out: MIC/IC80 CT): > 500 µM
Cc1ccc2[nH]c(=O)cc(O)c2c1 [Compound 2, 4-Hydroxy-6-methylquinolin-2(1H)-one]	157	0.3307	> 500	> 500	> 500	> 500	> 500	> 500	> 500	> 500	> 500	> 500	> 500	> 500	> 500	> 500	> 500	> 500	–
O=C(O)c1ccc2[nH]c(=O)cc(O)c2c1O [Compound 3, 4,5-Dihydroxy-2-oxo-1,2-dihydroquinoline-6-carboxylic acid]	346	0.0002	250 (≈ 55.3 µg/mL)	> 500	> 500	> 500	> 500	> 500	250 (≈ 55.3 µg/mL)	250 (≈ 55.3 µg/mL)	> 500	> 500	125 (≈ 27.6 µg/mL)	125 (≈ 27.6 µg/mL)	> 500	> 500	500 (≈ 111 µg/mL)	> 500	–
O=c1[nH]c2ccccc2c(O)c1[N+](=O)[O-] [Compound 5, 4-Hydroxy-3-nitroquinolin-2(1H)-one]	510	0.4052	> 500	> 500	> 500	> 500	> 500	> 500	> 500	> 500	> 500	> 500	> 500	> 500	> 500	> 500	> 500	> 500	OER inhibition effectiveness relative to compound 1 [1]: approximately twice as effective as compound 1
OC(Cn1cncn1)(Cn1cncn1)c1ccc(F)cc1F [FLU, Fluconazole, reference compound]	–	–	0.24 (≈ 0.0735 µg/mL)	0.48 (≈ 0.147 µg/mL)	3.91 (≈ 1.2 µg/mL)	15.6 (≈ 4.78 µg/mL)	> 125	> 125	0.98 (≈ 0.3 µg/mL)	3.91 (≈ 1.2 µg/mL)	1.95 (≈ 0.597 µg/mL)	3.91 (≈ 1.2 µg/mL)	0.06 (≈ 0.0184 µg/mL)	0.12 (≈ 0.0368 µg/mL)	> 125	> 125	0.12 (≈ 0.0368 µg/mL)	> 125	–
